Columns and labels:
[1] = Storage stability of EC20 drug substance and EC20 kits; assay type: physicochemical; details: −20° C. in amber glass bottles with butyl rubber stoppers
Procedure: EC20 kits were used for preparation of the ^99mTc-EC20 radioactive drug substance. Each kit contained a sterile, non-pyrogenic lyophilized mixture of 0.1 mg EC20, 80 mg sodium α-D-glucoheptonate, […] dihydrate, and sufficient sodium hydroxide or hydrochloric acid to adjust the pH to 6.8±0.2 prior to lyophilization. The lyophilized powder was sealed in a 5 mL vial under an argon atmosphere. The kits were then stored frozen at −20° C. until use or expiration (current shelf life is >2 years). The tin (II) chloride component is present to reduce the added ^99mTc-pertechnetate, while the sodium α-D-glucoheptonate component is present to stabilize the reduced ^99mTc prior to its final chelation to the EC20 compound.
EC20 Drug Substance is stored at −20° C. in amber glass bottles with butyl rubber stoppers.

[2] = system: folate receptors; assay: EC20 scan of ovarian cancer patients at the interim analysis of Example 25; assay type: in vivo, human; details: at the time of the interim analysis of Example 25
Description: Folate-receptor status in the patient is positive if one or more tumors in the patient have folate receptors capable of binding EC20 or if all tumors in the patient are capable of binding EC20. In one illustrative example, the folate-radioactive imaging agent conjugate is ^99mTc-EC20. At the time of the interim analysis described in Example 25, below, 91.3% of all ovarian cancer patients scanned with EC20 had been “positive” (indicated by having at least one tumor lesion/area that binds EC20) versus 8.7% of patients that were fully EC20 “negative”.
In this visual assessment embodiment (visual detection), lesions are evaluated visually to determine if the patient has a threshold level of functionally active folate receptors indicative of a clinical benefit to the patient. In one aspect, lesions (i.e., tumors) for analysis in each patient are selected by a radiologist according to RECIST (v1.0) criteria. Subsequently, a nuclear medicine physician (i.e. reader) assesses the uptake of the EC20 for each evaluable target lesion visually, and classifies the uptake as “EC20 positive” (marked uptake/mild uptake) or “EC20 negative” (no uptake). In one illustrative example the folate-radioactive imaging agent conjugate is ^99mTc-EC20.

[3] = system: folate receptors; assay: 99mTc-EC20 SPECT uptake in target lesions (EC-FV-02); assay type: in vivo, human
Procedure: EC20 Patient Scanning Procedure. Following completion of screening procedures and confirmation of eligibility, all subjects received one intravenous injection of 0.5 mg of folic acid followed within 1-3 minutes by a 1-2 mL injection of 0.1 mg of EC20 labeled with 20-25 mCi of technetium-99m. Patients then underwent SPECT imaging (mid-thigh to head, posterior and anterior images) 1-2 hours following injection of EC20. Target lesions were selected by the radiologist according to RECIST (v1.0) criteria. Subsequently, nuclear medicine physicians assessed EC20 uptake for each target lesion visually, and classified the uptake as “positive” (marked/mild uptake) or “negative” (no uptake).
EC20 Lesion Scoring Procedure.
Forty-five protocol-eligible subjects with a total of 216 RECIST-defined target tumors (ie, “lesions”) were included in this retrospective analysis (table below). One-hundred and forty-five (145/216; 67%) of the lesions were considered EC20 “evaluable.” Of these, 111 (77%) had EC20 “positive” uptake.

[4] = of 145 evaluable lesions, visual SPECT assessment, 45 subjects

**Q.** For `Nc1nc2ncc(CNc3ccc(C(=O)N[C@H](CCC(=O)NC[C@H](N)C(=O)N[C@@H](CC(=O)O)C(=O)N[C@@H](CS)C(=O)O)C(=O)O)cc3)nc2c(=O)[nH]1` [EC20 Drug Substance, pteroyl-γ-D-glutamyl-β-L-2,3-diaminopropionyl-L-aspartyl-L-cysteine], which “time stable on storage” value [1] is on record?
**A.** Its value is “more than 24 months”.

**Q.** With `Nc1nc2ncc(CNc3ccc(C(=O)N[C@H](CCC(=O)NC[C@@H]4[NH][99Tc]56(=[O])[S]C[C@@H](C(=O)O)[N]5C(=O)[C@H](CC(=O)O)[N]6C4=O)C(=O)O)cc3)nc2c(=O)[nH]1` [EC20] as the molecule, how does the “ovarian cancer patients scanned "positive" (at least one tumor lesion/area that binds EC20)” value [2] read?
**A.** The value was 91.3%.

**Q.** And the “patients fully EC20 "negative"” value [2]?
**A.** The value was 8.7%.

**Q.** And the “subjects with EC20 uptake observed visually in at least 1 target lesion” value ([3]; 45 subjects, EC-FV-02)?
**A.** Its value is “Eighty-seven percent”.

**Q.** What about the “Negative (EC20−(neg)) lesions” value [3, 4] of the same molecule?
**A.** The value was 34 (23%) N (%).

**Q.** What about the “Positive (EC20+) lesions” value [3, 4] of the same molecule?
**A.** The value was 111 (77%) N (%).

**Q.** And the “uptake in liver, spleen, bladder, and kidney” value ([3]; organs whose target lesions were considered non-evaluable)?
**A.** The value was “inherently high uptake”.

Reference: patent US20140140925A1, “FOLATE-TARGETED DIAGNOSTICS AND TREATMENT” (priority 2009, published 2014)
